Patent publication US6514747B2 (UT-Battelle, LLC, priority 1993, dated 2003)

Experiments:
3T3-L1 adipocytes = experiment: lipogenesis in 3T3-L1 adipocytes (FAS and SCD mRNA, FAS activity, triglyceride content); assay type: cell-based; settings: nitrendipine alone
L6 skeletal myocytes = experiment: [Ca2+]i in L6 skeletal myocytes (fura 2); assay type: cell-based
untransfected 293 cells = experiment: adenylyl cyclase assay in untransfected 293 cells; assay type: cell-based, human; settings: untransfected 293 cells
Experimental: 293 cells (5×10^5) and 293 cells expressing human TSH-R were preloaded with 5 μCi ^3H-adenine for 1.5 h at 37° C. in a 5% CO2 incubator.
Medium was aspirated and 2.5% perchloric acid containing 0.1 mM cAMP was used to stop the incubation. Adenylyl cyclase activity was calculated by determining the percent conversion of ^3H-adenine to ^3H-cAMP as described (Salomon, 1991; Johnson and Salomon, 1991). Correlation of cAMP accumulation measured in this assay with actual adenylyl cyclase activity is made under the assumption that isobutymethylxanthine effectively blocks cAMP degradation. Data represent means and standard deviations from triplicate data points.

[1] = test system: aP212 and aP273 transgenic mice; experiment: daily insulin injections in aP2-agouti transgenic mice; assay type: in vivo, mouse
Experimental: All mice were maintained at Oak Ridge National Laboratory. The FVB/N mice were obtained from random-bred stock. All mice were fed a diet containing 11% fat by weight (Mouse Diet 5015; Purina), weaned at 4 wk of age, and subsequently weighed monthly. Food and water were obtained from ad libitum. All data are from mice that are hemizygous for the transgene.
Plasma and serum were obtained by retro-orbital sinus puncture from nonfasted mice between 9 am and 11 am. Plasma insulin levels were measured by radioimmunoassay (ICN) with porcine insulin as a standard. Blood glucose concentrations were determined by blood sampling from the tail vein followed by quantification via One-Touch™ glucose determination system (Johnson & Johnson).
Six- to ten-wk-old male mice were subcutaneously injected between 11 am and noon with Humulin U ultralente (Eli Lilly, Indianapolis, Ind.) at a daily dose of 0.5, 1, or 2 units/day per mouse. Insulin (100 units/ml) was diluted before injection with phosphate-buffered saline so that all mice received a 200-μl injection. A 1-ml syringe was filled with […] of the diluted insulin solution. To keep the insulin suspension as uniform as possible, it was mixed between each injection via plunger action.

[2] = molecular target: T1, human melanocortin 1 receptor (hMC1R) (Homo sapiens, UniProt Q01726); experiment: [Ca2+]i in HEK-293 cells transfected with hMC1R; assay type: cell-based; settings: 20 nM agouti, n = 8
T1 construct: The coding region of the human melanocortin 1, 3, and 5 receptor (hMC1R, hMC3R, and hMC5R) genes was amplified; expressed in transfected cells; host or cells: HEK-293 cells, cotransfected with pMT4 construct and pRSV-Neo, geneticin-selected clones
T1 sequence (Q01726 whole entry): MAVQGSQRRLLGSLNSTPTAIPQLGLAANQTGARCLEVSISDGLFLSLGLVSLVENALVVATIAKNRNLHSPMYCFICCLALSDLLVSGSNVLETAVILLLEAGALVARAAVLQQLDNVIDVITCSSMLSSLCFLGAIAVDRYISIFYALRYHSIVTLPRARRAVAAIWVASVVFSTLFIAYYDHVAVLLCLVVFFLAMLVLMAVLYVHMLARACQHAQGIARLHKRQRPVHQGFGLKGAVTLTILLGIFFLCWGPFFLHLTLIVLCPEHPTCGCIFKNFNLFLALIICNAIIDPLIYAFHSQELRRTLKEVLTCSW
Experimental: The coding region of the human melanocortin 1, 3, and 5 receptor (hMC1R, hMC3R, and hMC5R) genes was amplified by polymerase chain reaction and subcloned into the vector pMT4, and the sequence was verified. HEK-293 cells, which appear to lack endogenous melanocortin receptors (Lu et al., 1994), were cotransfected with pMT4 and pRSV-Neo by either calcium phosphate coprecipitation method or the use of Transfectam reagent (Promega). Clones were selected using 600 μg geneticin/ml. culture medium.
[Ca^2+]i was measured in L6, A7r5, and HEK-293 cells (Zemel et al., 1995) as previously described and in 3T3-L1 cells as described by Klip and Ramlal (1987). Monolayers of nonfused L6 cells and confluent A7r5 cells after 14-16 h of starvation in a serum-free culture medium were rinsed with Hanks' balanced salt solution (HBSS), detached by incubation in 2 ml trypsin (0.05%) for 2-3 min at 37° C., and released by pipetting without trypsinization. Cells were harvested by centrifugation at 50 g and resuspended in 1 ml HBSS at a density of ˜10^6 cells/ml. For 3T3-L1 cells, monolayers of differentiated adipocytes were rinsed with serum-free DMEM and exposed to 0.05% trypsin for 3 min. The solution was decanted, and the cells were incubated for 3 min in culture medium. Cells were detached by pipetting and collected by centrifugation at 50 g. Cells were then incubated in culture medium to recover for 1 h followed by incubation in serum-free DMEM for 4 h at 37° C. in an atmosphere of 5% CO2, collected by centrifugation, and resuspended in HBSS at a density of ˜10^6 cells/ml. Cell suspensions were chilled on ice for 5 min and loaded with […] (final concn) fura 2 acetoxymethyl ester (AM; Sigma) in the dark for 20 min at 37° C. For 3T3-L1 adipocytes, the chilling step was skipped. […] [Ca^2+]i levels were then measured fluorometrically in suspensions using dual excitation (340 and 380 nm)-single emission (510 nm) fluorometry as previously described (Zemel et al., 1995). [Ca^2+]i was then calculated by the computer in the fluorometer with the equation of Grynkiewicz et al. (1985). […]

[3] = test system: isolated human adipocytes; experiment: [Ca2+]i in isolated human adipocytes; assay type: cell-based
[4] = molecular target: T2, human melanocortin 3 receptor (hMC3R) (Homo sapiens, UniProt P41968); experiment: [Ca2+]i in HEK-293 cells transfected with hMC3R; assay type: cell-based; settings: 20 nM agouti, n = 8
T2 construct: The coding region of the human melanocortin 1, 3, and 5 receptor (hMC1R, hMC3R, and hMC5R) genes was amplified; expressed in transfected cells; host or cells: HEK-293 cells, cotransfected with pMT4 construct and pRSV-Neo, geneticin-selected clones
T2 sequence (P41968 whole entry): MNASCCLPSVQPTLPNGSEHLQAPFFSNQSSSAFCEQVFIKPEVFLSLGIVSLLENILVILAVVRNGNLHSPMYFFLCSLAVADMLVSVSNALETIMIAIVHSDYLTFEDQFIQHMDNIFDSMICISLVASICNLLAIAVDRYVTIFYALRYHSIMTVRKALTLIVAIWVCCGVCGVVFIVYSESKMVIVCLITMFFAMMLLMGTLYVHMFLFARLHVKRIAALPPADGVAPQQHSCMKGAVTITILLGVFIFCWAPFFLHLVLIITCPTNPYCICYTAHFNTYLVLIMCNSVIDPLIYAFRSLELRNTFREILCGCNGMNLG
Experimental: [Ca^2+]i was measured in L6, A7r5, and HEK-293 cells (Zemel et al., 1995) as previously described and in 3T3-L1 cells as described by Klip and Ramlal (1987). Monolayers of nonfused L6 cells and confluent A7r5 cells after 14-16 h of starvation in a serum-free culture medium were rinsed with Hanks' balanced salt solution (HBSS), detached by incubation in 2 ml trypsin (0.05%) for 2-3 min at 37° C., and released by pipetting without trypsinization. Cells were harvested by centrifugation at 50 g and resuspended in 1 ml HBSS at a density of ˜10^6 cells/ml. For 3T3-L1 cells, monolayers of differentiated adipocytes were rinsed with serum-free DMEM and exposed to 0.05% trypsin for 3 min. The solution was decanted, and the cells were incubated for 3 min in culture medium. Cells were detached by pipetting and collected by centrifugation at 50 g. Cells were then incubated in culture medium to recover for 1 h followed by incubation in serum-free DMEM for 4 h at 37° C. in an atmosphere of 5% CO2, collected by centrifugation, and resuspended in HBSS at a density of ˜10^6 cells/ml. […] [Ca^2+]i levels were then measured fluorometrically in suspensions using dual excitation (340 and 380 nm)-single emission (510 nm) fluorometry as previously described (Zemel et al., 1995). [Ca^2+]i was then calculated by the computer in the fluorometer with the equation of Grynkiewicz et al. (1985). […]

Molecule: CCOC(=O)C1=C(C)NC(C)=C(C(=O)OC)C1c1cccc([N+](=O)[O-])c1 (stereo not drawn) [nitrendipine, reference compound]
- effect on FAS activity or triglyceride content (3T3-L1 adipocytes): no effect
- reduction of [Ca2+]i response to 50 nM agouti (L6 skeletal myocytes; 30 μM nitrendipine): ~50%
- [Ca2+]i response to 50 nM agouti (L6 skeletal myocytes; with 30 μM nitrendipine): 22 ± 6 nM

Molecule: α-melanocyte-stimulating hormone [α-MSH, reference compound]
- effect on the cAMP pathway (untransfected 293 cells): no effect

Molecule: insulin: Humulin U ultralente (Eli Lilly), injected subcutaneously
- time for blood glucose levels to return to normal after insulin injection ([1]; 1 unit per mouse s.c., aP212 mice and littermates): ≤ 24 h
- average rate of weight gain, insulin-injected transgenic mice vs control mice ([1]; 2 units of insulin per day per mouse s.c., 7 days): 1.7 fold

B1: human agouti: recombinant human agouti protein (132 amino acids, SEQ ID NO:4) produced in baculovirus-infected T. ni cells (protein)
chain: MDVTRLLLATLLVFLCFFTANSHLPPEEKLRDDRSLRSNSSVNLLDVPSVSIVALNKKSKQIGRKAAEKKRSSKKEASMKKVVRPRTPLSAPCVATRNSCKPPAPACCDPCASCQCRFFRSACSCRVLSLNC
modifications: Homo sapien
- [Ca2+]i Increase over Baseline [2]: 57 ± 9
- [Ca2+]i [3]: stimulate an increase
- [Ca2+]i Increase over Baseline [4]: 77 ± 14
